PubChem BioAssay (NCI)
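Values below derive from 48-hour exposures of cells grown in 96-well plates, with endpoints linearly interpolated between the two concentrations bracketing the appropriate inhibition level. Abbreviation: GI50, concentration required for 50% inhibition of growth. TGI: concentration producing complete growth inhibition.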

Columns and labels:
Assay in all cases: DTP human tumour cell line panel, 48 h
[1] = system: MOLT-4 leukemia
[2] = system: K-562 leukemia
[3] = system: LOX IMVI melanoma
[4] = system: SK-MEL-2 melanoma
[5] = system: SK-MEL-28 melanoma
[6] = system: NCI-H460 lung
[7] = system: PC-3 prostate
[8] = system: OVCAR-3 ovarian
[9] = system: HL-60(TB) leukemia
[10] = system: NCI-H226 lung

In the case of `Cc1[nH]n(-c2ccc(S(=O)(=O)O)cc2)c(=O)c1N=Nc1ccccc1`, the TGI [1] is reported as greater than 100 µM, the TGI [2] is reported as greater than 100 µM and the TGI [3] is reported as greater than 100 µM. The TGI [4] was greater than 100 µM, the TGI [5] was greater than 100 µM and the TGI [6] was greater than 100 µM. The TGI [7] was greater than 100 µM and the TGI [8] was greater than 100 µM.

`O=C1Nc2ccccc2/C1=C/c1cn(C(=O)c2c(Cl)cccc2Cl)c2ccccc12` showed a GI50 [9] of 2.46 µM, a TGI [9] of 11 µM and a GI50 [10] of 7.48 µM. The TGI [10] was 27 µM, the GI50 [1] was 2.82 µM and the TGI [1] was greater than 100 µM. The GI50 [2] was 3.14 µM, the TGI [2] was greater than 100 µM and the GI50 [3] was 1.59 µM. For the same molecule, the TGI [3] was 3.24 µM, the GI50 [6] was 2 µM and the TGI [6] was 3.97 µM. The GI50 [7] was 2.39 µM, the TGI [7] was 11.2 µM and the GI50 [8] was 1.65 µM. It also gave a TGI [8] of 3.65 µM.

`CC(=O)c1c(O)ccc2c(C)c(C(=O)O)oc12` was tested, and the GI50 [10] was 0.0188 µM, the TGI [10] was 12.2 µM and the GI50 [1] was greater than 100 µM. The TGI [1] was greater than 100 µM, the GI50 [2] was greater than 100 µM and the TGI [2] was greater than 100 µM. For the same molecule, the GI50 [3] was greater than 100 µM, the TGI [3] was greater than 100 µM and the GI50 [5] was greater than 100 µM. For the same molecule, the TGI [5] was greater than 100 µM, the GI50 [6] was greater than 100 µM and the TGI [6] was greater than 100 µM. For the same molecule, the GI50 [7] was greater than 100 µM, the TGI [7] was greater than 100 µM and the GI50 [8] was greater than 100 µM. For the same molecule, the TGI [8] was greater than 100 µM.

`Cn1cnc([N+](=O)[O-])c1SC1=NCCS1` showed a TGI [10] greater than 100 µM, a TGI [1] greater than 100 µM and a TGI [2] greater than 100 µM. For the same molecule, the TGI [3] was 39 µM, the TGI [4] was greater than 100 µM and the TGI [5] was greater than 100 µM. It also gave a TGI [6] greater than 100 µM and a TGI [8] greater than 100 µM.

`O=C1c2cccc3cccc(c23)C(=O)N1CCCCN1CCN(CCCCOc2ccc(-c3nc4ccc(N5CCOCC5)cc4[nH]3)cc2)CC1` was tested, and the GI50 [9] was 4.62 µM, the TGI [9] was greater than 100 µM and the GI50 [10] was greater than 100 µM. The TGI [10] was greater than 100 µM, the GI50 [1] was 3.76 µM and the TGI [1] was greater than 100 µM. It also gave a GI50 [2] of 4.35 µM, a TGI [2] greater than 100 µM and a GI50 [3] of 9.78 µM. The TGI [3] was greater than 100 µM, the GI50 [4] was greater than 100 µM and the TGI [4] was greater than 100 µM. It also gave a GI50 [5] of 66 µM, a TGI [5] greater than 100 µM and a GI50 [6] greater than 100 µM. For the same molecule, the TGI [6] was greater than 100 µM, the GI50 [8] was 12.1 µM and the TGI [8] was greater than 100 µM.

Molecule `CCCCCCCCCCCCSC(=NC)NC` has a GI50 [9] of 1.86 µM, a TGI [9] of 4.41 µM and a GI50 [1] of 2.01 µM. The TGI [1] was 5.05 µM, the GI50 [2] was 1.95 µM and the TGI [2] was 6.35 µM. The GI50 [5] was 1.72 µM, the TGI [5] was 3.22 µM and the GI50 [6] was 1.84 µM. It also gave a TGI [6] of 3.52 µM, a GI50 [7] of 1.9 µM and a TGI [7] of 4.94 µM. It also gave a GI50 [8] of 2 µM and a TGI [8] of 4.82 µM.

`O[C@@H]1CCCN1Cc1cc2cc3c(cc2c2cc(OCc4ccccc4)ccc12)OCO3` was tested, and the GI50 [9] was 1.94 µM, the TGI [9] was 4.13 µM and the GI50 [10] was 15.7 µM. The TGI [10] was 37.7 µM, the GI50 [1] was 3.38 µM and the TGI [1] was 14.1 µM. It also gave a GI50 [2] of 2.71 µM, a TGI [2] of 8.83 µM and a GI50 [3] of 1.8 µM. For the same molecule, the TGI [3] was 3.44 µM, the GI50 [4] was 2.23 µM and the TGI [4] was 4.79 µM. For the same molecule, the GI50 [5] was 1.78 µM, the TGI [5] was 3.85 µM and the GI50 [6] was 2.6 µM. The TGI [6] was 7.38 µM, the GI50 [8] was 3.73 µM and the TGI [8] was 14.5 µM.

With `O=C1CCCC(=O)C1=C(O)CCCCCCCCCCc1ccccc1` the TGI [9] was 35.1 µM, the TGI [10] was 96.9 µM and the TGI [1] was greater than 100 µM. For the same molecule, the TGI [2] was greater than 100 µM, the TGI [3] was greater than 100 µM and the TGI [4] was 49.1 µM. The TGI [5] was greater than 100 µM, the TGI [6] was greater than 100 µM and the TGI [8] was greater than 100 µM.

Molecule `COc1cc(C(=O)/C=C/c2c(-c3ccc(F)cc3)nc3ncccn23)cc(OC)c1OC` has a GI50 [9] of 3.33 µM, a TGI [9] greater than 100 µM and a GI50 [10] of 3.08 µM. It also gave a TGI [10] of 18.9 µM, a GI50 [1] of 3.75 µM and a TGI [1] greater than 100 µM. The GI50 [2] was 3.03 µM, the TGI [2] was greater than 100 µM and the GI50 [4] was 2.38 µM. The TGI [4] was 6.97 µM, the GI50 [5] was 3.68 µM and the TGI [5] was greater than 100 µM. The GI50 [7] was 4.35 µM, the TGI [7] was greater than 100 µM and the GI50 [8] was 1.4 µM. It also gave a TGI [8] of 3.64 µM.

With `COC(=O)c1oc2c(O)c(OC)c(Br)cc2c1C` the GI50 [10] was 29 µM, the TGI [10] was 50.2 µM and the GI50 [1] was 22.4 µM. It also gave a TGI [1] of 43 µM, a GI50 [2] of 34.4 µM and a TGI [2] greater than 100 µM. For the same molecule, the GI50 [3] was 23.5 µM, the TGI [3] was 39.2 µM and the GI50 [4] was 56.2 µM. For the same molecule, the TGI [4] was greater than 100 µM, the GI50 [6] was 64 µM and the TGI [6] was greater than 100 µM. It also gave a GI50 [7] of 21.2 µM, a TGI [7] of 39.7 µM and a GI50 [8] of 23.6 µM. It also gave a TGI [8] of 43.5 µM.

`COc1cc(C2CC(c3ccc(Nc4ccnc5cc(Cl)ccc45)cc3)=NN2C=O)cc(OC)c1OC` (stereo unspecified) was tested, and the GI50 [9] was 2.53 µM, the TGI [9] was 7.4 µM and the GI50 [10] was 34.5 µM. It also gave a TGI [10] greater than 100 µM, a GI50 [1] of 3.36 µM and a TGI [1] of 9.21 µM. The GI50 [3] was 1.89 µM, the TGI [3] was 3.85 µM and the GI50 [5] was 2.22 µM. The TGI [5] was 4.81 µM, the GI50 [6] was 4.42 µM and the TGI [6] was greater than 100 µM. It also gave a GI50 [7] of 11.7 µM, a TGI [7] greater than 100 µM and a GI50 [8] of 1.91 µM. It also gave a TGI [8] of 3.4 µM.

`O=C1Cc2ccccc2N1c1c(Cl)cccc1Cl` was tested, and the TGI [9] was 50.8 µM, the TGI [10] was greater than 100 µM and the TGI [1] was 98.1 µM. The TGI [2] was greater than 100 µM, the TGI [3] was greater than 100 µM and the TGI [4] was greater than 100 µM. The TGI [5] was greater than 100 µM, the TGI [6] was greater than 100 µM and the TGI [8] was greater than 100 µM.

`COc1cc2c3c(n(CCCCNC(=O)OCC4c5ccccc5-c5ccccc54)c(=O)c2cc1OC)-c1cc2c(cc1C3=O)OCO2` gave a GI50 [10] of 31.1 µM, a TGI [10] greater than 100 µM and a GI50 [1] of 0.281 µM. The TGI [1] was 1.81 µM, the GI50 [2] was 3.05 µM and the TGI [2] was 27.4 µM. It also gave a GI50 [3] of 7.08 µM, a TGI [3] greater than 100 µM and a GI50 [4] of 70.4 µM. It also gave a TGI [4] greater than 100 µM, a GI50 [5] greater than 100 µM and a TGI [5] greater than 100 µM. It also gave a GI50 [6] of 2.56 µM, a TGI [6] of 54.2 µM and a GI50 [7] of 13.7 µM. The TGI [7] was 55.6 µM, the GI50 [8] was 19.8 µM and the TGI [8] was 62.5 µM.

Molecule `CO/N=C(\COc1ccc2c(c1)oc(=O)c1cc(OC)ccc12)c1cccc(OC)c1` has a GI50 [10] greater than 100 µM, a TGI [10] greater than 100 µM and a GI50 [1] greater than 100 µM. The TGI [1] was greater than 100 µM, the GI50 [2] was greater than 100 µM and the TGI [2] was greater than 100 µM. It also gave a GI50 [3] greater than 100 µM, a TGI [3] greater than 100 µM and a GI50 [4] greater than 100 µM. For the same molecule, the TGI [4] was greater than 100 µM, the GI50 [5] was greater than 100 µM and the TGI [5] was greater than 100 µM. For the same molecule, the GI50 [6] was greater than 100 µM, the TGI [6] was greater than 100 µM and the GI50 [7] was greater than 100 µM. For the same molecule, the TGI [7] was greater than 100 µM, the GI50 [8] was greater than 100 µM and the TGI [8] was greater than 100 µM.

Molecule `C#C[C@@]1(O)CCCC2=CC(=O)C[C@]21C` has a TGI [9] greater than 100 µM, a TGI [10] greater than 100 µM and a TGI [1] greater than 100 µM. It also gave a TGI [2] greater than 100 µM, a TGI [4] greater than 100 µM and a TGI [5] greater than 100 µM. The TGI [6] was greater than 100 µM and the TGI [8] was greater than 100 µM.

For `Oc1ccc2c3c1OC1C(=NN=C4CCC5(O)C6Cc7ccc(O)c8c7C5(CCN6CC5CC5)C4O8)CCC4(O)C(C2)N(CC2CC2)CCC314` (stereo unspecified), the TGI [9] was 39.8 µM, the TGI [10] was greater than 100 µM and the TGI [1] was greater than 74 µM. For the same molecule, the TGI [2] was 48.2 µM, the TGI [3] was 39.1 µM and the TGI [4] was 18.9 µM. The TGI [5] was 49.4 µM, the TGI [6] was 46.1 µM and the TGI [8] was 34.6 µM.

For `Oc1ccc2ccccc2c1C(c1ccc(Cl)cc1)c1c(O)ccc2ccccc12`, the TGI [9] was 4.91 µM, the TGI [1] was 17.5 µM and the TGI [2] was 10.6 µM. For the same molecule, the TGI [3] was 8.11 µM, the TGI [4] was 6.71 µM and the TGI [5] was 15.9 µM. The TGI [6] was 11.3 µM, the TGI [7] was 7.7 µM and the TGI [8] was 9.06 µM.
